US12116371B2, “Substituted pyridines as irreversible inhibitors of menin-MLL interaction” (BIOMEA FUSION, INC., priority 2018, dated 2024)
Where two headings read alike, the source gives them in different places.

Columns and labels:
HL-60 cells [1] = experiment: Cell proliferation inhibition, CellTiterGlo viability assay, 4 days (Example 102); type: cell-based; details: 4 days treatment; for IC50: Homo sapiens, 96 h
Excerpt: (§1) The objective of the study was to evaluate the ability of compounds of the invention, inhibitors of Menin/MLL interaction to inhibit cell proliferation. The proliferation inhibitory effect was investigated in two human MLL-leukemia cells selected on the bases of MLL fusion protein and listed in Table 1. HL-60 cell line was used as negative control (Table 3).
(§2) ATP is present in all metabolically active cells and is considered as a marker for cell viability and proliferation. The metabolic cell activity was determined using the CellTiter-Glo kit from Promega, an ATP monitoring system based on the production of luminescence by the reaction of ATP with added UltraGlo® recombinant luciferase (Kawano et al., 2016), according to the supplier's experimental recommendations.
(§3) The described assay evaluates the ability of representative compounds of invention to inhibit the cell proliferation in the human MLL-leukemia cells plus a negative control cell line.
(§4) The assay provides potency values (IC50) for each test compound at a single time point Day 4 (T4).
(§5) Seven concentrations of the NCEs (2.00E-05-6.67E-06-2.22E-06-7.41E-07-2.47E-07-8.23E-08-2.74E-08M), were assessed in duplicate in an individual test occasion in all the cell lines. MI-503 (Borkin et al., 2015) was used as reference compound and was tested at the same concentrations as the NCEs. 100% of proliferation is represented by the untreated cells (0.2% DMSO). The cell growth was monitored up to 4 days in culture.
(§6) MV4-11, MOLM-13 and HL-60 cells (see Table 2) were maintained in RPMI-1640 medium (Invitrogen, Cat. n. 618700, Batch n. 1965930) supplemented with 10% of Heat Inactivated FBS (Invitrogen, Cat n. 10500, Batch n. 08Q8078K) and 1% Pen-Strep (Invitrogen, Cat. N. 15140, Batch n. 1910859) and cultured at 37° C. in a humidified incubator with 5% CO2. All the cell lines grow in suspension and the cell density was maintained in a range of 2×10^5-1×10^6 viable cells/ml. Cells were pelleted at 130 g×5 min and conditioned medium was used to dilute the cell suspension.
(§7) Cells were plated in 96-well flat bottom microtiter plates at cell density of 15,000 cells/ml for HL-60, 1000 cells/ml for MOLM-13 and 10,000 cell/ml for MV4-11. Cells were treated with 0.2% DMSO (Sigma, D8418, batch n. SHBH4245V) or serial dilutions of compounds ([…]) in DMSO (0.2% final concentration). Cells were incubated in a 5% CO2 incubator at 37° C. for 4 days. A CellTiterGlo viability assay (Promega) was employed. Luminescence was read by using VictorV (Perkin Elmer) multilabel plate reader using the standard protocol for luminescence in 96 well plate. The experiment was performed in duplicate.
(§8) Data were expressed as % of inhibition compared to the 0.2% DMSO negative control, and was calculated as follows: % inhibition=100−[(RLU sample)×100/(RLU average controls*)]*cells containing 0.2% DMSO
(§9) CRCs were analysed by GraphPad and IC50 values were calculated by non-linear regression using 4 parameter-logistic equation. IC50 (μM) values were reported in the final data table. The curve fittings were performed leaving free all the parameters. Any constrain were reported in the results table.

RS4-11 (MLL-AF4) cells = experiment: Long-term proliferation (LTP) assay, CellTiterGlo (Example 103); type: cell-based; details: for IC50: Homo sapiens, RS4-11 (MLL-AF4), LTP assay
Method: (§10) The day of the experiment (TO) all the cell line suspensions were counted by Cell Viability Analyser, Vi-CELL and properly diluted with fresh medium to obtain the cell density reported in the Test System paragraph.
(§11) Cells were tested after 4 passages after thawing.
(§12) 200 μL/well and 150 μL/well of cell suspension were added into the 0.4 µL/well and 0.3 μL/well compound plates, respectively. • Cell plate containing 200 μL/well suspension was incubated at 37° C. in a humidified incubator with 5% CO2. • From each well of the 150 µL/well cell assay plate, 100 μL were harvested and transferred into a 96-well Optiplate (Perkin Elmer, Cat. n. 6005290) and cell viability was measured as described in 4.3 paragraphs (TO). • After four days in culture (T4) 150 μL/well of fresh medium were added into a new […] copy compound plate. • From each well of the 200 μL/well cell assay plate: • 100 μL were sampled for the cell viability measurement as described in 4.3 paragraphs (T4). • 50 μL were harvested and added to the 150 μL/well compound plate prepared as described in the first point to dilute 1:4 the cell suspension. • The cell assay plate diluted and containing 200 µL/well suspension were incubated at 37° C. in a humidified incubator with 5% CO2.
(§13) At T7-T11-T14 it was proceeded as described in T4, with the exception that no further cell dilution was carried out at T14.
(§14) Plates containing the samples to be tested were equilibrated at room temperature for approximately 30 min and then 30 μL/well of the Promega CellTiterGlo® reagent were added. Contents will be mixed for 5 min on an orbital shaker to induce cell lysis and then incubated at room temperature for an additional 10 min to stabilize the luminescent signal.
(§15) Luminescence was read by using VictorV (Perkin Elmer) multilabel plate reader using the standard protocol for luminescence in 96 well plate.
(§16) Data were expressed as % of inhibition compared to the 0.2% DMSO negative control, and was calculated as follows: % inhibition=100−[(RLU sample)×100/(RLU average controls*)] • *cells containing 0.2% DMSO
(§17) CRCs were analysed by GraphPad and IC50 values were calculated by non-linear regression using 4 parameter-logistic equation. IC50 (M) values were reported in the final data table.

HL-60 cells [2] = experiment: as above; type: cell-based; details: for IC50: Homo sapiens
Method: as §10, §11, §12, §13, §14, §15, §16, §17

MV4-11 (MLL-AF4) cells [3] = experiment: Cell proliferation inhibition, CellTiterGlo viability assay, 4 days (Example 102); type: cell-based, human; details: 4 days treatment; for IC50: Homo sapiens, 96 h
Excerpt: as §1, §2, §3, §4, §5, §6, §7, §8, §9

MOLM-13 (MLL-AF9) cells [4] = experiment: as above; type: cell-based, human; details: 4 days treatment; for IC50: Homo sapiens, 96 h
Excerpt: as §1, §2, §3, §4, §5, §6, §7, §8, §9

MV4-11 (MLL-AF4) cells [5] = experiment: Long-term proliferation (LTP) assay, CellTiterGlo (Example 103); type: cell-based, human; details: for IC50: Homo sapiens, MV4-11 (MLL-AF4), LTP assay
Method: as §10, §11, §12, §13, §14, §15, §16, §17

MOLM-13 (MLL-AF9) cells [6] = experiment: as above; type: cell-based, human; details: for IC50: Homo sapiens, MOLM-13 (MLL-AF9), LTP assay
Method: as §10, §11, §12, §13, §14, §15, §16, §17

[7] = 96 h, Day 4, read-out: Day 4 IC50
[8] = 168 h, Day 7, read-out: Day 7 IC50
[9] = 264 h, Day 11, read-out: Day 11 IC50
[10] = 96 h, Day 4, LTP assay, read-out: Day 4 IC50
[11] = 168 h, Day 7, LTP assay, read-out: Day 7 IC50
[12] = 264 h, Day 11, LTP assay, read-out: Day 11 IC50
[13] = 336 h, Day 14, LTP assay, read-out: Day 14 IC50
[14] = 336 h, Day 14, read-out: Day 14 IC50

SMILES	IC50 (RS4-11 (MLL-AF4) cells; [7]) [nM]	IC50 (RS4-11 (MLL-AF4) cells; [8]) [nM]	IC50 (RS4-11 (MLL-AF4) cells; [9]) [nM]	IC50 (HL-60 cells [2]; [10]) [nM]	IC50 (HL-60 cells [2]; [11]) [nM]	IC50 (HL-60 cells [2]; [12]) [nM]	IC50 (HL-60 cells [2]; [13]) [nM]	IC50 (MV4-11 (MLL-AF4) cells [5]; [7]) [nM]	IC50 (MV4-11 (MLL-AF4) cells [5]; [8]) [nM]	IC50 (MV4-11 (MLL-AF4) cells [5]; [9]) [nM]	IC50 (MV4-11 (MLL-AF4) cells [5]; [14]) [nM]	IC50 (MOLM-13 (MLL-AF9) cells [6]; [7]) [nM]	IC50 (MOLM-13 (MLL-AF9) cells [6]; [8]) [nM]	IC50 (MOLM-13 (MLL-AF9) cells [6]; [9]) [nM]	IC50 (MOLM-13 (MLL-AF9) cells [6]; [14]) [nM]	also measured
C=CC(=O)NC1CN(c2ccnc(NC(=O)Nc3ccc(-c4cc5c(N6CCOCC6)ncnc5[nH]4)cc3)c2)C1 [Compound 1]	550	112	> 5000	790	600	780	890	760	580	550	380	830	450	500	720	% max (HL-60 cells [1]; CellTiterGlo): 80%; IC50 (HL-60 cells [1]; CellTiterGlo, read-out: pIC50 (converted)): 195 nM; IC50 (HL-60 cells [1]; read-out: IC50): 190 nM; % max (MV4-11 (MLL-AF4) cells [3]): 98%; IC50 (MV4-11 (MLL-AF4) cells [3]; read-out: IC50): 150 nM; IC50 (MV4-11 (MLL-AF4) cells [3]; read-out: pIC50 (converted)): 151 nM; % max (MOLM-13 (MLL-AF9) cells [4]): 85%; IC50 (MOLM-13 (MLL-AF9) cells [4]; read-out: IC50): 200 nM; IC50 (MOLM-13 (MLL-AF9) cells [4]; read-out: pIC50 (converted)): 200 nM
CN(C)C/C=C/C(=O)NC1CN(c2ccnc(NC(=O)Nc3ccc(-c4cc5c(N6CCOCC6)ncnc5[nH]4)cc3)c2)C1 [Compound 15]	1450	1550	> 5000	1150	680	850	890	650	460	350	350	1020	410	320	330	effect on cell viability at T4 (RS4-11 (MLL-AF4) cells; RS4;11, T4, increasing concentrations): fully inhibited; effect on cell viability at T4 (HL-60 cells [2]; T4, increasing concentrations): fully inhibited; effect on cell viability at T4 (MV4-11 (MLL-AF4) cells [5]; MV4-11, T4, increasing concentrations): fully inhibited; effect on cell viability at T4 (MOLM-13 (MLL-AF9) cells [6]; MOLM-13, T4, increasing concentrations): fully inhibited
